Experimental data taken from PubChem BioAssay (NCI).
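Values below derive from 48-hour exposures of cells grown in 96-well plates, with endpoints linearly interpolated between the two concentrations bracketing the appropriate inhibition level. TGI: concentration producing complete growth inhibition.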

How the values were obtained:
Assay in all cases: NCI anticancer screen, dose series, 48 h
786-0 renal = system: 786-0 renal
LOX IMVI melanoma = system: LOX IMVI melanoma
SNB-19 CNS = system: SNB-19 CNS
MDA-N = system: MDA-N
SK-MEL-5 melanoma = system: SK-MEL-5 melanoma
NCI/ADR-RES ovarian = system: NCI/ADR-RES ovarian
HOP-62 NSCLC = system: HOP-62 NSCLC
SW-620 colon = system: SW-620 colon
IGROV1 ovarian = system: IGROV1 ovarian
ACHN renal = system: ACHN renal
DU-145 prostate = system: DU-145 prostate

## COc1cc(S(=O)(=O)Nc2nc(-c3ccc(N=Cc4ccccc4O)cc3)cs2)ccc1Cl
786-0 renal
  TGI: > 100 µM
LOX IMVI melanoma
  TGI: > 100 µM
SNB-19 CNS
  TGI: > 100 µM
MDA-N
  TGI: > 100 µM
SK-MEL-5 melanoma
  TGI: 71.5 µM
NCI/ADR-RES ovarian
  TGI: > 100 µM
HOP-62 NSCLC
  TGI: > 100 µM
SW-620 colon
  TGI: > 100 µM
IGROV1 ovarian
  TGI: > 100 µM
ACHN renal
  TGI: > 100 µM
DU-145 prostate
  TGI: > 100 µM

## CC(C)C(=O)Cc1ccc2ccccc2n1
786-0 renal
  TGI: > 100 µM
LOX IMVI melanoma
  TGI: > 100 µM
SNB-19 CNS
  TGI: > 100 µM
MDA-N
  TGI: > 100 µM
SK-MEL-5 melanoma
  TGI: > 100 µM
NCI/ADR-RES ovarian
  TGI: > 100 µM
HOP-62 NSCLC
  TGI: > 100 µM
SW-620 colon
  TGI: > 100 µM
IGROV1 ovarian
  TGI: > 100 µM
ACHN renal
  TGI: > 100 µM
DU-145 prostate
  TGI: > 100 µM

## CCOC(=O)c1c(C)n(-c2ccc(C)cc2)c(=O)c2ccccc2c(=O)c2c(=O)ccc(=O)c1=2
786-0 renal
  TGI: > 100 µM
LOX IMVI melanoma
  TGI: 36.4 µM
SNB-19 CNS
  TGI: 51.7 µM
SK-MEL-5 melanoma
  TGI: 30.4 µM
NCI/ADR-RES ovarian
  TGI: 58.4 µM
HOP-62 NSCLC
  TGI: 46 µM
SW-620 colon
  TGI: 49.9 µM
IGROV1 ovarian
  TGI: > 100 µM
ACHN renal
  TGI: 31.9 µM
DU-145 prostate
  TGI: 39.3 µM

## O=c1c2ccccc2nc2n1CCc1c-2[nH]c2ccccc12
SNB-19 CNS
  TGI: 29.2 µM
MDA-N
  TGI: 28.5 µM
SK-MEL-5 melanoma
  TGI: 28.6 µM
NCI/ADR-RES ovarian
  TGI: 61 µM
SW-620 colon
  TGI: 52.9 µM
IGROV1 ovarian
  TGI: 60.6 µM
DU-145 prostate
  TGI: 33.5 µM

## CC(=O)Nc1ccc2c(c1)C(=O)c1ccccc1-2
786-0 renal
  TGI: > 100 µM
LOX IMVI melanoma
  TGI: > 100 µM
SNB-19 CNS
  TGI: > 100 µM
HOP-62 NSCLC
  TGI: > 100 µM
SW-620 colon
  TGI: > 100 µM
IGROV1 ovarian
  TGI: > 100 µM
ACHN renal
  TGI: > 100 µM

## COc1cc(CCN)c(OC)c(OC)c1
786-0 renal
  TGI: > 100 µM
LOX IMVI melanoma
  TGI: > 100 µM
SNB-19 CNS
  TGI: > 100 µM
MDA-N
  TGI: > 100 µM
SK-MEL-5 melanoma
  TGI: 54.9 µM
NCI/ADR-RES ovarian
  TGI: > 100 µM
HOP-62 NSCLC
  TGI: > 100 µM
SW-620 colon
  TGI: > 100 µM
IGROV1 ovarian
  TGI: > 100 µM
ACHN renal
  TGI: > 100 µM
DU-145 prostate
  TGI: > 100 µM

## O=S1(=O)C(=C(c2ccccc2)c2ccccc2)S(=O)(=O)c2ccccc21
LOX IMVI melanoma
  TGI: > 100 µM
SNB-19 CNS
  TGI: > 100 µM
SK-MEL-5 melanoma
  TGI: > 100 µM
NCI/ADR-RES ovarian
  TGI: > 100 µM
HOP-62 NSCLC
  TGI: 46.8 µM
SW-620 colon
  TGI: > 100 µM
IGROV1 ovarian
  TGI: > 100 µM
